Test results as given in patent US9409905B2, “Antibacterial compounds and methods for use” (PTC THERAPEUTICS, INC., priority 2011, dated 2016).
In brackets after ≈: the same amount, converted by molar mass.

Tests used:
[1] = system: Haemophilus influenzae (H. influenzae) 49247; experiment: Antibacterial activity, MIC (Table 6); type: cell-based
Source text: (§1) The antibacterial activity from a microbroth dilution method may be presented as the minimum inhibitory concentration (MIC in μg/mL). The MIC value is the lowest concentration of drug which prevents macroscopically visible growth under test conditions.
(§2) Antibacterial activity of test compounds against the Gram-negative bacteria Haemophilus influenzae (H. influenzae) 49247 is shown in Table 6, Moraxella catarrhalis (M. catarrhalis) 25238 is shown in Table 7 and Neisseria meningitidis (N. meningitidis) 13090 is shown in Table 8.

[2] = system: Moraxella catarrhalis (M. catarrhalis) 25238; experiment: Antibacterial activity, MIC (Table 7); type: cell-based
Source text: as §1, §2

[3] = system: Staphylococcus aureus (S. aureus) 29213; experiment: Antibacterial activity, microbroth dilution MIC (Table 1); type: cell-based; conditions: microbroth dilution, Gram-positive S. aureus 29213, read-out: MIC, 29213
Outline: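 Values are MICs (μg/mL): the smallest drug amount at which macroscopically visible bacterial growth is absent under assay conditions, from a microdilution method in broth.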

[4] = system: Escherichia coli (E. coli) BAS849; experiment: as above; type: cell-based; conditions: microbroth dilution, super sensitive Gram-negative E. coli BAS849, read-out: MIC, BAS849
Outline: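 Broth microdilution; endpoint = no macroscopic growth; value = lowest inhibiting concn, μg/mL.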

[5] = system: Acinetobacter baumannii (A. baumannii) BAA747; experiment: Antibacterial activity, MIC (Table 4); type: cell-based; conditions: A. baumannii BAA747, read-out: MIC, BAA747
Outline: (§3)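 Values are MICs in μg/mL, read as the lowest compound concentration at which no growth is visible by eye. They come from a microbroth dilution method.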

[6] = system: Klebsiella pneumoniae (K. pneumoniae) 35657; experiment: Antibacterial activity, MIC (Table 4); type: cell-based; conditions: K. pneumoniae 35657, read-out: MIC, 35657
Outline: as §3

E. coli ELZ4251 = experiment: Antibacterial activity, MIC, multi-drug resistant clinical isolate (Table 3); type: cell-based; conditions: Escherichia coli
Outline: (§4)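 Growth inhibition is measured by microbroth dilution, and the minimum inhibitory concentration in μg/mL corresponds to the lowest drug level that prevents visible bacterial growth.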

E. coli ELZ4000 = experiment: as above; type: cell-based; conditions: Escherichia coli, ELZ4000, read-out: MIC ELZ4000
Outline: as §4

[7] = system: Neisseria meningitidis (N. meningitidis) 13090; experiment: Antibacterial activity, MIC (Table 8); type: cell-based
Source text: as §1, §2

E. coli 25922 = experiment: Antibacterial activity, microbroth dilution MIC (Table 1); type: cell-based, Escherichia coli; conditions: Escherichia coli; microbroth dilution; control Gram-negative E. coli 25922 strain; read-out: MIC, 25922
Outline: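 Potency is reported as minimum inhibitory concentration in μg/mL, determined by broth microdilution as the lowest level of compound that stops growth visible to the eye.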

K. pneumoniae MXX1232 = experiment: Antibacterial activity, MIC, resistant strain (Table 4); type: cell-based; conditions: Klebsiella pneumoniae, MXX1232; resistant K. pneumoniae MMX1232, multi-drug resistant clinical isolate; read-out: MIC, MMX1232
Outline: as §3

A. baumannii MXX2240 = experiment: as above; type: cell-based; conditions: Acinetobacter baumannii, MXX2240; resistant A. baumannii MMX2240, multi-drug resistant clinical isolate; read-out: MIC, MMX2240
Outline: as §3

[8] = system: Pseudomonas aeruginosa (P. aeruginosa) 27853; experiment: Antibacterial activity, MIC (Table 5); type: cell-based; conditions: P. aeruginosa 27853, read-out: MIC, 27853
Outline: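 MIC in μg/mL from broth microdilution; endpoint is the lowest drug level giving no visible growth.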

E. coli LZ3111 = experiment: Antibacterial activity, MIC, quinolone resistant strain (Table 2); type: cell-based; conditions: Escherichia coli, LZ3111, read-out: MIC LZ3111
Outline: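 Lowest concentration giving no macroscopically visible growth was taken as the MIC (μg/mL) after microbroth dilution testing.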

CCc1c(-c2ccc3c(c2)cc(CN2CCNCC2)n3C)[nH]c(=O)c(C(=O)O)c1O [Cpd 171, 5-ethyl-4-hydroxy-6-(1-methyl-2-(piperazin-1-ylmethyl)-1H-indol-5-yl)-2-oxo-1,2-dihydropyridine-3-carboxylic acid]
MIC [1]: 1 to 3.5 µg/mL (≈ 2.44 to 8.53 µM) | MIC [2]: 3.5 to 12.5 µg/mL (≈ 8.53 to 30.5 µM) | MIC [3]: 12.5 to 150 µg/mL (≈ 30.5 to 365 µM) | MIC [4]: < 1 µg/mL | MIC [5]: 12.5 to 150 µg/mL (≈ 30.5 to 365 µM) | MIC [6]: 1 to 3.5 µg/mL (≈ 2.44 to 8.53 µM) | MIC (E. coli ELZ4251): 12.5 to 150 µg/mL (≈ 30.5 to 365 µM) | MIC (E. coli ELZ4000): 12.5 to 150 µg/mL (≈ 30.5 to 365 µM) | MIC [7]: 1 to 3.5 µg/mL (≈ 2.44 to 8.53 µM) | MIC (E. coli 25922): 1 to 3.5 µg/mL (≈ 2.44 to 8.53 µM) | MIC (K. pneumoniae MXX1232): 12.5 to 150 µg/mL (≈ 30.5 to 365 µM) | MIC (A. baumannii MXX2240): 12.5 to 150 µg/mL (≈ 30.5 to 365 µM) | MIC [8]: 12.5 to 150 µg/mL (≈ 30.5 to 365 µM) | MIC (E. coli LZ3111): 1 to 3.5 µg/mL (≈ 2.44 to 8.53 µM)

CCc1c(-c2ccc3c(c2)cc(CN2CCCC2C)n3C)[nH]c(=O)c(C(=O)O)c1O (stereo not shown) [Cpd 173, 5-ethyl-4-hydroxy-6-(1-methyl-2-((2-methylpyrrolidin-1-yl)methyl)-1H-indol-5-yl)-2-oxo-1,2-dihydropyridine-3-carboxylic acid]
MIC [1]: < 1 µg/mL | MIC [2]: < 1 µg/mL | MIC [3]: 3.5 to 12.5 µg/mL (≈ 8.55 to 30.5 µM) | MIC [4]: < 1 µg/mL | MIC [5]: 1 to 3.5 µg/mL (≈ 2.44 to 8.55 µM) | MIC [6]: 1 to 3.5 µg/mL (≈ 2.44 to 8.55 µM) | MIC (E. coli ELZ4251): 3.5 to 12.5 µg/mL (≈ 8.55 to 30.5 µM) | MIC (E. coli ELZ4000): 12.5 to 150 µg/mL (≈ 30.5 to 366 µM) | MIC [7]: < 1 µg/mL | MIC (E. coli 25922): < 1 µg/mL | MIC (K. pneumoniae MXX1232): 12.5 to 150 µg/mL (≈ 30.5 to 366 µM) | MIC (A. baumannii MXX2240): 12.5 to 150 µg/mL (≈ 30.5 to 366 µM) | MIC [8]: 12.5 to 150 µg/mL (≈ 30.5 to 366 µM) | MIC (E. coli LZ3111): 3.5 to 12.5 µg/mL (≈ 8.55 to 30.5 µM)

CCc1c(-c2ccc3c(c2)cc(CN2CC[C@H](N)C2)n3C)[nH]c(=O)c(C(=O)O)c1O [Cpd 180, (S)-6-(2-((3-aminopyrrolidin-1-yl)methyl)-1-methyl-1H-indol-5-yl)-5-ethyl-4-hydroxy-2-oxo-1,2-dihydropyridine-3-carboxylic acid]
MIC [1]: 1 to 3.5 µg/mL (≈ 2.44 to 8.53 µM) | MIC [2]: 3.5 to 12.5 µg/mL (≈ 8.53 to 30.5 µM) | MIC [3]: 12.5 to 150 µg/mL (≈ 30.5 to 365 µM) | MIC [4]: < 1 µg/mL | MIC [5]: 12.5 to 150 µg/mL (≈ 30.5 to 365 µM) | MIC [6]: 3.5 to 12.5 µg/mL (≈ 8.53 to 30.5 µM) | MIC (E. coli ELZ4251): 3.5 to 12.5 µg/mL (≈ 8.53 to 30.5 µM) | MIC (E. coli ELZ4000): 12.5 to 150 µg/mL (≈ 30.5 to 365 µM) | MIC [7]: 1 to 3.5 µg/mL (≈ 2.44 to 8.53 µM) | MIC (E. coli 25922): 1 to 3.5 µg/mL (≈ 2.44 to 8.53 µM) | MIC (K. pneumoniae MXX1232): 12.5 to 150 µg/mL (≈ 30.5 to 365 µM) | MIC (A. baumannii MXX2240): 12.5 to 150 µg/mL (≈ 30.5 to 365 µM) | MIC [8]: 12.5 to 150 µg/mL (≈ 30.5 to 365 µM) | MIC (E. coli LZ3111): 1 to 3.5 µg/mL (≈ 2.44 to 8.53 µM)

CCc1c(-c2ccc3c(c2)cc(CNC)n3C)[nH]c(=O)c(C(=O)O)c1O [Cpd 203, 5-ethyl-4-hydroxy-6-(1-methyl-2-((methylamino)methyl)-1H-indol-5-yl)-2-oxo-1,2-dihydropyridine-3-carboxylic acid]
MIC [1]: < 1 µg/mL | MIC [2]: < 1 µg/mL | MIC [3]: 3.5 to 12.5 µg/mL (≈ 9.85 to 35.2 µM) | MIC [4]: < 1 µg/mL | MIC [5]: < 1 µg/mL | MIC (E. coli ELZ4251): 1 to 3.5 µg/mL (≈ 2.81 to 9.85 µM) | MIC (E. coli ELZ4000): 3.5 to 12.5 µg/mL (≈ 9.85 to 35.2 µM) | MIC [7]: < 1 µg/mL | MIC (E. coli 25922): < 1 µg/mL | MIC (K. pneumoniae MXX1232): 12.5 to 150 µg/mL (≈ 35.2 to 422 µM) | MIC (A. baumannii MXX2240): 3.5 to 12.5 µg/mL (≈ 9.85 to 35.2 µM) | MIC [8]: 1 to 3.5 µg/mL (≈ 2.81 to 9.85 µM) | MIC (E. coli LZ3111): 1 to 3.5 µg/mL (≈ 2.81 to 9.85 µM)
